{
  "source": "patent US20240050588A1",
  "about": "“PHARMACEUTICAL COMPOSITION CONTAINING PROPOFOL, A CYCLODEXTRIN OR A CYCLODEXTRIN DERIVATIVE AND A PHARMACEUTICALLY ACCEPTABLE SALT” (CENTRE HOSPITALIER UNIVERSITAIRE DE LILLE, priority 2020, published 2024)",
  "assay": "Propofol phase-solubility tests with cyclodextrins according to the method of Higuchi and Connors",
  "settings": "25 °C, water, thermodynamic from solid",
  "method": "A large excess of propofol is added to 1.4 ml of the appropriate cyclodextrin solution. The resulting mixtures are vortexed for about 5 min and stirred at a temperature 25±0.5° C. for 24 hours. About 1 ml of the solution is transferred using a Pasteur pipette into an Eppendorf tube. Afterwards, these tubes are centrifuged for 30 min at 13,200 rpm. Afterwards, 40 μl of the aqueous phase are sampled and then diluted to 1/10 in ethanol and to 40/1,000 in a solution of acetonitrile and an ammonia buffer pH 9.2. Afterwards, these samples are filtered through a 0.2 μm filter and then put in vial before analysis by high-performance liquid chromatography with UV detection. The injection volume was 10 microliters (cf. injection loop). […] The stability constants Kc are estimated from the slope of the line of the phase-solubility diagram according to the following equation: Kc=slope/S0 (1−slope).\nThe stability constant Kc is calculated from the slope of the line of the phase-solubility diagram according to the following equation: Kc=slope/S0(1−slope).\nThe used 2-hydropropyl-β-cyclodextrin is still that one selected before (HPB-LB). […]\nThe results of the solubility tests have been analysed again more particularly with the complexation efficiency (CE), calculated using the equation: […]",
  "note": "Where “and” joins values, the source holds several entries; their conditions need not be identical. Identical values can stand only once.",
  "data": [
    {"compound": "CC(C)c1cccc(C(C)C)c1O", "note": "[propofol, 2,6-bis(propan-2-yl)phenol]", "values": [
      {"measurement": "solubility at 24 h", "value": "1070 µM and 190 µg/mL"}
    ]}
  ]
}
